Laboratory results published in patent US20030220376A1, “Methods for treating carbonic anhydrase mediated disorders” (Pharmacia Corporation, priority 2001, published 2003).
Where “and” joins values, the source holds several entries; their conditions need not be identical. Identical values can stand only once. Like-named read-outs stand apart in the source and are kept apart here.

Target: T1, human carbonic anhydrase II (Homo sapiens, UniProt P00918)
T1 construct: purchased Sigma C-6165
Test: Carbonic anhydrase II inhibition assay (p-nitrophenol acetate, absorbance at 405 nm)
Type: biochemical
Procedure: Final concentrations of each inhibitor ranged from 1 picomolar to 1 micromolar. Control samples that included either no inhibitor or no enzyme were also performed.
The admixture of substrate and enzyme initiates the enzyme reaction. […] The inhibition at each inhibitor concentration was measured in triplicate. The IC50 value was then derived using the GraphPad Prism curve fitting software. […] The compound number listed in Table 2 and 3 corresponds with the same compound number detailed in Table 1.

[1] = Table 3, mean, read-out: Mean IC50
[2] = Table 2, overall value of N determinations, read-out: CA Assay IC50 (μM) and concentration of inhibitor added
[3] = read-out: IC50 for inhibition of CA II activity
[4] = Table 2, single values of the N determinations, read-out: CA Assay IC50 (μM), individual determinations in parentheses

Row | Compound | IC50 [1] | other results
1 | COC(=O)c1cc(-c2ccccc2)n(-c2ccc(S(N)(=O)=O)cc2)n1 [Compound 32] | 0.182 µM | –
2 | NC(=O)c1nn(-c2ccc(S(N)(=O)=O)cc2)c2c1CNc1ccccc1-2 [Compound 14] | 0.101 µM | –
3 | C/C=C/c1cc(C(F)F)nn1-c1ccc(S(N)(=O)=O)cc1 [Compound 35] | 0.018 µM | –
4 | NC(=O)c1nn(-c2ccc(S(N)(=O)=O)cc2)c2c1C[S+]([O-])c1ccccc1-2 (stereo not shown) [Compound 12] | 0.465 µM | –
5 | CNC(=O)c1nn(-c2ccc(S(N)(=O)=O)cc2)c2c1CCc1[nH]ncc1-2 [Compound 19] | 0.0777 µM | –
6 | NC(=O)c1cc(-c2ccncc2)n(-c2ccc(S(N)(=O)=O)cc2)n1 [Compound 27] | 0.418 µM | –
7 | CNC(=O)c1nn(-c2ccc(S(N)(=O)=O)cc2)cc1-c1ccccc1 [Compound 58] | 0.389 µM | –
8 | NS(=O)(=O)c1ccc(-n2nc(CO)cc2-c2ccc(O)cc2)cc1 [Compound 47] | 0.0671 µM | –
9 | NS(=O)(=O)c1ccc(-n2nc(C(F)(F)F)cc2C2CCNCC2)cc1 [Compound 57] | 0.139 µM | –
10 | COc1ccc(-c2ccnn2-c2ccc(S(N)(=O)=O)cc2)cc1 [Compound 43] | 0.203 µM | –
11 | COc1cc(C(F)(F)F)nn1-c1ccc(S(N)(=O)=O)cc1 [Compound 49] | 0.0087 µM | –
12 | Cc1ccc(-c2cc(C(F)(F)F)n(-c3ccc(S(N)(=O)=O)cc3)n2)cc1 [Compound 63] | 0.0035 µM | –
13 | NC(=O)c1nn(-c2ccc(S(N)(=O)=O)cc2)c2c1CCC=C2 [Compound 30] | 0.0219 µM | –
14 | NS(=O)(=O)c1ccc(-n2nc(C(F)(F)F)cc2O)cc1 [Compound 65] | 0.0812 µM | –
15 | C#CCN(CC#C)S(=O)(=O)c1ccc(-n2nc(C(N)=O)c3c2-c2nc(N)ncc2CC3)cc1 [Compound 25] | 2.91 µM | –
16 | COC(C)Cc1cc(C(F)F)nn1-c1ccc(S(N)(=O)=O)cc1 (stereo not shown) [Compound 34] | 0.0184 µM | –
17 | O=C(c1ccc(-n2nc(C(F)(F)F)cc2-c2ccc(F)cc2)cc1)C(F)(F)F [X, reference compound] | – | IC50 [2]: > 100 µM
18 | NS(=O)(=O)c1ccc(-n2nc(C(=O)NCC(=O)O)cc2-c2ccc(Cl)cc2)cc1 [Compound 44] | 0.08 µM | –
19 | CNC(=O)c1cc(-c2ccc(OC)cc2)n(-c2ccc(S(N)(=O)=O)cc2)n1 [Compound 41] | 0.334 µM | –
20 | CCOc1cccc2c(C(N)=O)nn(-c3ccc(S(N)(=O)=O)cc3)c12 [Compound 23] | 0.202 µM | –
21 | CS(=O)(=O)c1ccc(C2=C(c3ccccc3)C(=O)OC2)cc1 [VIII, Rofecoxib, reference compound] | – | IC50 [2]: > 100 µM; IC50 [3]: > 100 µM
22 | NS(=O)(=O)c1ccc(-n2nc(C(=O)O)cc2-c2ccccc2)cc1 [Compound 37] | 0.599 µM | –
23 | NS(=O)(=O)c1ccc(-n2nc(C(F)(F)F)cc2O)cc1 [Compound 48] | 0.0812 µM | –
24 | NC(=O)c1cc(-c2ccccn2)n(-c2ccc(S(N)(=O)=O)cc2)n1 [Compound 29] | 0.127 µM | –
25 | CN(C)/C=N/c1cccc(-c2cc(C(N)=O)nn2-c2ccc(S(N)(=O)=O)cc2)c1 [Compound 17] | 0.181 µM | –
26 | COc1ccc(-c2cc(C(=O)O)nn2-c2ccc(S(N)(=O)=O)cc2)cc1 [Compound 42] | 4.9 µM | –
27 | C=C1N[C@@H]2[C@@H](CS[C@@H]2CCCCC(=O)NCCOCCOCCNC(=O)CSCc2cc(-c3ccc(Cl)cc3)n(-c3ccc(S(N)(=O)=O)cc3)n2)N1 [Compound 6] | – | IC50 [2]: 0.18 µM
28 | CC1CCc2c(c(C(=O)O)nn2-c2ccc(S(N)(=O)=O)cc2)C1 (stereo not shown) [Compound 13] | 0.07 µM | –

Row | Compound | IC50 [1] | other results
29 | COCC(=O)Nc1ccc2c(c1)-c1c(c(C(N)=O)nn1-c1ccc(S(N)(=O)=O)cc1)CC2 [Compound 20] | 0.435 µM | –
30 | Cc1ccc(-c2cc(C(F)(F)F)n(-c3ccc(S(N)(=O)=O)cc3)n2)cc1 [Compound 1] | – | IC50 [4]: 0.015 µM and 0.021 µM and 0.004 µM; IC50 [3]: 0.01 µM
31 | NC(=O)c1nn(-c2ccc(S(N)(=O)=O)cc2)c2c1CCc1cnccc1-2 [Compound 8] | 0.195 µM | –
32 | NC(=O)c1nn(-c2ccc(S(N)(=O)=O)cc2)c2c1CCc1cn(CCO)nc1-2 [Compound 21] | 1.22 µM | –
33 | CC(C)Oc1cc(C(F)(F)F)nn1-c1ccc(S(N)(=O)=O)cc1 [Compound 50] | 0.0171 µM | –
34 | CS(=O)(=O)c1ccc(-n2nccc2-c2ccc(F)cc2)cc1 [IX, reference compound] | – | IC50 [2]: > 100 µM
35 | NS(=O)(=O)c1ccc(-n2nc(C(F)(F)F)cc2-c2cccnc2)cc1 [Compound 33] | 0.0386 µM | –
36 | COC(=O)C1c2ccccc2-c2c1cnn2-c1ccc(S(N)(=O)=O)cc1 (stereo not shown) [Compound 9] | 0.0334 µM | –
37 | COC(C)(C)Cc1cc(C(F)F)nn1-c1ccc(S(N)(=O)=O)cc1 [Compound 36] | 0.0463 µM | –
38 | NC(=O)c1nn(-c2ccc(S(N)(=O)=O)cc2)c2c1CSCC2 [Compound 51] | 0.0356 µM | –
39 | COC(=O)c1cc(-c2ccc(OC)cc2)n(-c2ccc(S(N)(=O)=O)cc2)n1 [Compound 31] | 0.239 µM | –
40 | NS(=O)(=O)c1ccc(-n2ncc(C(F)(F)F)c2-c2ccccc2)cc1 [Compound 56] | 0.109 µM | –
41 | NS(=O)(=O)c1ccc(-n2nc(C(=O)O)c3c2-c2cn[nH]c2CC3)cc1 [Compound 22] | 1.24 µM | –
42 | NS(=O)(=O)c1ccc(-n2nc(C(F)(F)F)cc2C(=O)C(=O)c2ccccc2)cc1 [Compound 53] | 0.0105 µM | –
43 | NC(=O)c1cc(-c2ccco2)n(-c2ccc(S(N)(=O)=O)cc2)n1 [Compound 26] | 0.0794 µM | –
44 | COc1ccc(-c2cc(C(N)=O)nn2-c2ccc(S(N)(=O)=O)cc2)cc1 [Compound 39] | 0.258 µM | –
45 | CC(=O)SCc1cc(-c2ccc(Cl)cc2)n(-c2ccc(S(N)(=O)=O)cc2)n1 [Compound 4] | – | IC50 [2]: 0.09 µM
46 | NS(=O)(=O)c1ccc(-n2nc(C(F)(F)F)c3c2-c2ccccc2[S+]([O-])C3)cc1 (stereo not shown) [Compound 45] | 0.0431 µM | –
47 | NS(=O)(=O)c1ccc(-n2ncc3c2-c2ccncc2CC3)cc1 [Compound 18] | 0.251 µM | –
48 | NC(=O)c1cc(-c2cccnc2)n(-c2ccc(S(N)(=O)=O)cc2)n1 [Compound 28] | 0.523 µM | –
49 | NC(=O)c1cc(-c2ccccc2)n(-c2ccc(S(N)(=O)=O)cc2)n1 [Compound 38] | 0.21 µM | –
50 | CS(=O)(=O)Nc1cccc(-c2cc(C(N)=O)nn2-c2ccc(S(N)(=O)=O)cc2)c1 [Compound 16] | 0.0338 µM | –
51 | NC(=O)c1nn(-c2ccc(S(N)(=O)=O)cc2)c2c1CCc1cnc(N)nc1-2 [Compound 24] | 0.06 µM | –
52 | CCCCOc1ccc(-c2cc(C(F)(F)F)nn2-c2ccc(S(N)(=O)=O)cc2)cc1 [Compound 2] | – | IC50 [2]: 0.04 µM; IC50 [4]: 0.03 µM and 0.04 µM
53 | COc1ccc2c(c1F)C[S+]([O-])c1c(C(F)(F)F)nn(-c3ccc(S(N)(=O)=O)cc3)c1-2 (stereo not shown) [Compound 46] | 0.06 µM | –
54 | NS(=O)(=O)c1ccc(-n2nc(-c3ccccc3)cc2-c2ccccc2)cc1 [Compound 3] | – | IC50 [2]: 0.04 µM
55 | CCOC(=O)c1nn(-c2ccc(S(N)(=O)=O)cc2)c2c1CCC=C2 [Compound 15] | 0.0056 µM | –
